Patent US7786142B2, “Heterocyclic compounds as pSTAT3/IL-6 inhibitors” (Orchid Research Laboratories, Ltd., priority 2005, dated 2010)

Experiments:
[1] = mouse, in vivo
Protocol: All test compound/standard drugs were delivered by gavage in a volume of 10 ml/kg. Drugs were administered every day for single time to a period of 21 days. Control mice were treated with the drug solvent/vehicle. Tumor size is measured every alternate days and body weight is recorded daily.
• a) Tumor Volume Inhibition (TVI): A TVI value higher than 80% is indicative of active compounds. • b) T/C % is also another indicator for the activity. A reproducible 20% T/C is considered as therapeutically active. • c) Log Cell Kill (LCK): A LCK value greater than 1 is indicative of active compounds. • d) Relative Tumor Volume (RTV), Tumor Delay and % Tumor volume change are also considered as valuable additional parameters for assessment. • e) Toxic effects of drug treatment were assessed by Body Weight Loss % • f) Lethal toxicity was defined as any death in treated groups occurring before any control death. Mice were inspected daily for mortality and toxic clinical signs.

[2] = tested on: IL-6; experiment: IL-6 in culture supernatants of NCIH 460 cells (ELISA); format: cell-based, Human
Protocol: Human Lung Cancer cell line (NCIH 460) is used for IL-6 measurement. 5000 cells/well were seeded in a 96 well plate and incubated in CO2 incubator at 37° C. for 24 hours. After 24 hours of incubation the medium from all wells were completed removed and added 100 μl of fresh DMEM containing 10% FCS. 100 μl of different concentrations of the drug were added and incubated for 5 hours in CO2 incubator at 37° C. After 5 hours of incubation the supernatants were collected and stored at −80° C. The concentration of IL-6 in the supernatant was measured using ELISA kit and the IC50 value of the compound was determined from the dose response curve, (See Table II).

[3] = tested on: MDAMB-231/U 251; experiment: Anti-cancer screen (MTT), MDAMB-231/U 251 cells; format: cell-based; settings: MDAMB-231/U 251, 48 hours, concentrations tested 0.01-100 μM
Method in brief: (§1)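 Cells (5000/well) in DMEM with 10% FBS were treated for 48 hours with 0.01, 0.1, 1, 10 and 100 μM compound in triplicate. MTT read at 570 nm gave percent growth relative to untreated controls and pre-dose T0 wells, from which GI50, TGI and LC50 were derived.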

[4] = tested on: HCT116 cells; experiment: Anti-cancer screen (MTT), HCT116 cells; format: cell-based; settings: Homo sapiens, HCT-116, HCT116, 48 hours, concentrations tested 0.01-100 μM
Method in brief: as §1

[5] = tested on: NCIH460 cells; experiment: Anti-cancer screen (MTT), NCIH460 cells; format: cell-based; settings: Homo sapiens, NCI-H460, NCIH460, 48 hours, concentrations tested 0.01-100 μM
Method in brief: as §1

[6] = read-out: LC50 (the source's name)

COc1ccc(CNC[C@H](O)COc2cccc3[nH]c4ccccc4c23)c(OC)c1 [Example 25, (2S)-1-(9H-carbazol-4-yloxy)-3-[(2,4-dimethoxybenzyl)amino]propan-2-ol]
body weight loss [1]: no body weight loss was observed | inhibition at 0.1 µM ([2]; Homo sapiens, NCI-H460, 0.1 μM, NCIH 460, 5 hours): 36% | inhibition at 1 µM ([2]; Homo sapiens, NCI-H460, 1 μM, NCIH 460, 5 hours): 50.9% | IC50 ([2]; Homo sapiens, NCI-H460, NCIH 460, 5 hours, read-out: IL-6 Inhibition IC50): 0.78 µM | IL-6 inhibition ([2]; in words): very good IL-6 inhibition | GI50 [3]: 13 µM | IC (TGI) [3]: 49 µM | CC50 [3, 6]: 81 µM | GI50 [4]: 5.6 µM | IC (TGI) [4]: 48 µM | LC50 (concentration for 50% net cell kill relative to T0) [4]: 79 µM | GI50 [5]: 0.67 µM | IC (TGI) [5]: 55 µM | CC50 [5, 6]: 68 µM
